PubChem BioAssay AID1259407 (Chemical Carcinogenesis Research Information System (CCRIS), 2018)
Active and inactive are the calls of the source. No rule for the calls is given here.

Tested on: CCRIS mutagenicity, Ames/micronucleus/aberration tests
Experiment: CCRIS mutagenicity studies

Measured: mutagenic call

C=C1CC/C=C(/C)CC[C@@H]2[C@@H]1CC2(C)C
inactive: Test System: AMES SALMONELLA TYPHIMURIUM, Strain/Indicator: TA98, Metabolic Activation: HAMSTER, LIVER, S-9, AROCLOR 1254, Method: STANDARD PLATE inactive; negative | Test System: AMES SALMONELLA TYPHIMURIUM, Strain/Indicator: TA98, Metabolic Activation: NONE, Method: STANDARD PLATE inactive; negative | Test System: AMES SALMONELLA TYPHIMURIUM, Strain/Indicator: TA98, Metabolic Activation: RAT, LIVER, S-9, AROCLOR 1254, Method: STANDARD PLATE inactive; negative | Test System: AMES SALMONELLA TYPHIMURIUM, Strain/Indicator: TA100, Metabolic Activation: HAMSTER, LIVER, S-9, AROCLOR 1254, Method: STANDARD PLATE inactive; negative | Test System: AMES SALMONELLA TYPHIMURIUM, Strain/Indicator: TA100, Metabolic Activation: NONE, Method: STANDARD PLATE inactive; negative | Test System: AMES SALMONELLA TYPHIMURIUM, Strain/Indicator: TA100, Metabolic Activation: RAT, LIVER, S-9, AROCLOR 1254, Method: STANDARD PLATE inactive; negative | Test System: AMES SALMONELLA TYPHIMURIUM, Strain/Indicator: TA102, Metabolic Activation: HAMSTER, LIVER, S-9, AROCLOR 1254, Method: STANDARD PLATE inactive; negative | Test System: AMES SALMONELLA TYPHIMURIUM, Strain/Indicator: TA102, Metabolic Activation: NONE, Method: STANDARD PLATE inactive; negative | Test System: AMES SALMONELLA TYPHIMURIUM, Strain/Indicator: TA102, Metabolic Activation: RAT, LIVER, S-9, AROCLOR 1254, Method: STANDARD PLATE inactive; negative | Test System: AMES SALMONELLA TYPHIMURIUM, Strain/Indicator: TA1535, Metabolic Activation: HAMSTER, LIVER, S-9, AROCLOR 1254, Method: STANDARD PLATE inactive; negative | Test System: AMES SALMONELLA TYPHIMURIUM, Strain/Indicator: TA1535, Metabolic Activation: NONE, Method: STANDARD PLATE inactive; negative | Test System: AMES SALMONELLA TYPHIMURIUM, Strain/Indicator: TA1535, Metabolic Activation: RAT, LIVER, S-9, AROCLOR 1254, Method: STANDARD PLATE inactive; negative | Test System: AMES SALMONELLA TYPHIMURIUM, Strain/Indicator: TA1537, Metabolic Activation: HAMSTER, LIVER, S-9, AROCLOR 1254, Method: STANDARD PLATE inactive; negative | Test System: AMES SALMONELLA TYPHIMURIUM, Strain/Indicator: TA1537, Metabolic Activation: NONE, Method: STANDARD PLATE inactive; negative | Test System: AMES SALMONELLA TYPHIMURIUM, Strain/Indicator: TA1537, Metabolic Activation: RAT LIVER, S-9, AROCLOR 1254, Method: STANDARD PLATE inactive; negative | Test System: MOUSE LYMPHOMA, Strain/Indicator: L5178Y (TK+/TK-), Metabolic Activation: NONE, Method: SUSPENSION/PLATE inactive; positive; reevaluation of results: negative
equivocal: Test System: Mouse lymphoma, Strain/Indicator: L5178Y (tk+/tk-), Metabolic Activation: Rat, Liver, S-9, Aroclor 1254, Method: Suspension/plate

O=C[C@H](O)[C@@H](O)[C@H](O)CO
inactive: Test System: AMES SALMONELLA TYPHIMURIUM, Strain/Indicator: TA97A, Metabolic Activation: NONE, Method: PREINCUBATION inactive; negative | Test System: AMES SALMONELLA TYPHIMURIUM, Strain/Indicator: TA97A, Metabolic Activation: RAT, LIVER, S-9, AROCLOR 1254, Method: PREINCUBATION inactive; negative | Test System: AMES SALMONELLA TYPHIMURIUM, Strain/Indicator: TA102, Metabolic Activation: NONE, Method: PREINCUBATION inactive; negative | Test System: AMES SALMONELLA TYPHIMURIUM, Strain/Indicator: TA102, Metabolic Activation: RAT, LIVER, S-9, AROCLOR 1254, Method: PREINCUBATION inactive; negative
